# Reference: patent US9133180B2, “Aurora and FLT3 kinases modulators” (SAREUM LIMITED, priority 2012, dated 2015)
# Legend:
# Aurora A kinase = Aurora A kinase (Homo sapiens (Human), UniProt O14965); test: Aurora A kinase 33P-ATP filter assay (Reaction Biology Corp.); assay type: biochemical
# Procedure: (§1) The ability of the compounds of the invention to inhibit FLT3 kinase and Aurora A and Aurora B kinases was determined using the assays described below.
# (§2) Kinase assays were performed at Reaction Biology Corp., Malvern, Pa., USA, using the following general procedure:
# (§3) 1) Prepare indicated substrate in freshly prepared Base Reaction Buffer (20 mM Hepes pH 7.5, 10 mM MgCl2, 1 mM EGTA, 0.02% Brij35, 0.02 mg/ml BSA, 0.1 mM Na3VO4, 2 mM DTT, 1% DMSO).
# (§4) 2) Deliver cofactors (1.5 mM CaCl2, 16 ug/mL Calmodulin, 2 mM MnCl2) to the substrate solution above.
# (§5) 3) Deliver indicated kinase into the substrate solution and gently mix
# (§6) 4) Deliver varying concentrations of test compound in DMSO into the kinase reaction mixture.
# (§7) 5) Deliver ^33P-ATP (specific activity 0.01 µCi/µL final) into the reaction mixture to initiate the reaction.
# (§8) 6) Incubate kinase reaction for 120 min at room temperature.
# (§9) 7) Reactions are spotted onto P81 ion exchange filter paper (Whatman #3698-915)
# (§10) 8) Unbound phosphate is removed by washing filters extensively in 0.75% phosphoric acid.
# (§11) 9) ^33P signal was determined using Typhoon phosphorimagers (GE Healthcare).
# (§12) Substrates: Kemptide=[H-LRRASLG] Abltide=[[…]]
# Aurora B kinase = Aurora B kinase (Homo sapiens (Human), UniProt Q96GD4); test: Aurora B kinase 33P-ATP filter assay (Reaction Biology Corp.); assay type: biochemical
# Aurora B kinase, sequence (Q96GD4 whole entry): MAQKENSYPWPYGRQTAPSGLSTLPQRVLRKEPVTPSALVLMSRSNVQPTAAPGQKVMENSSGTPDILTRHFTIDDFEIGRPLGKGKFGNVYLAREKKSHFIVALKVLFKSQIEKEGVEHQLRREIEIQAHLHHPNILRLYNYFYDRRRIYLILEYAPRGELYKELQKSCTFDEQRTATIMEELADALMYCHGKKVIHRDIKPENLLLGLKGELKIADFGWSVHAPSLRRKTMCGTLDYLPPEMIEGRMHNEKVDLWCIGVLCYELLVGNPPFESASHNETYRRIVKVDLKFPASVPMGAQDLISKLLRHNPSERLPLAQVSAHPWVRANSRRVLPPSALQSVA
# Procedure: as §1, §2, §3, §4, §5, §6, §7, §8, §9, §10, §11, §12
# FLT3 kinase = FLT3 kinase (Homo sapiens (Human), UniProt P36888); test: FLT3 kinase 33P-ATP filter assay (Reaction Biology Corp.); assay type: biochemical
# FLT3 kinase, sequence (P36888 27-993): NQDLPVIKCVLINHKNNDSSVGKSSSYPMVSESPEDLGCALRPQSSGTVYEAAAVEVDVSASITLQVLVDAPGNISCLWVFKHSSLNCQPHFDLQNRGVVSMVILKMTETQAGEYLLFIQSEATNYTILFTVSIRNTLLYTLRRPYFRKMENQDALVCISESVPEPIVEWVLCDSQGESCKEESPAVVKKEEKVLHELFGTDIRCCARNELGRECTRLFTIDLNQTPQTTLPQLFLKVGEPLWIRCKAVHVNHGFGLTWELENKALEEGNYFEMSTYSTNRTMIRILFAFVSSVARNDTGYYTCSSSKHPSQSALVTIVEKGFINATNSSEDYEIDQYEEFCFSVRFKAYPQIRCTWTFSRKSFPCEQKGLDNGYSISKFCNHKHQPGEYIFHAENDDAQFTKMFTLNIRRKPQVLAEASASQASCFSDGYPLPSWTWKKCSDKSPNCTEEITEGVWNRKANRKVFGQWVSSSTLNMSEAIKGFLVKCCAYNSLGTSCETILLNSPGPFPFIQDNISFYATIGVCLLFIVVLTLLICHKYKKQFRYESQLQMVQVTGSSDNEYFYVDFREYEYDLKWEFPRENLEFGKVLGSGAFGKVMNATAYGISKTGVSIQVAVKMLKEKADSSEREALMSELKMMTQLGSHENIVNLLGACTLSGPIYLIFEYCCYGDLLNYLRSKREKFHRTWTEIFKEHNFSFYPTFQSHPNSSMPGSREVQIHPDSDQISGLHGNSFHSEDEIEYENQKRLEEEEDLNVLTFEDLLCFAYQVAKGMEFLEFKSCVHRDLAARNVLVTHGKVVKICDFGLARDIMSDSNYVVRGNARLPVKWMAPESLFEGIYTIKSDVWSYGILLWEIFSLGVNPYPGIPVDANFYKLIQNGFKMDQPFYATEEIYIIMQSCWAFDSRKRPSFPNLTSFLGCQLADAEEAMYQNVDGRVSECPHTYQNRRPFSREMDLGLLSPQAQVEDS
# Procedure: as §1, §2, §3, §4, §5, §6, §7, §8, §9, §10, §11, §12
# HCT-116 [1] = test: Anti-proliferative activity, Alamar Blue assay; assay type: cell-based; details: Homo sapiens, 96 h exposure, read-out: HCT116 96 Hrs IC50
# Procedure: (§13) The anti-proliferative activities of compounds of the invention are determined by measuring the ability of the compounds to inhibit the growth of the colorectal cancer derived cell-line HCT-116. Inhibition of cell growth is measured using the Alamar Blue assay (Nociari et al., Journal of Immunological Methods (1998) 213, 157-167). The method is based on the ability of viable cells to reduce resazurin to its fluorescent product resorufin. For each proliferation assay cells are plated onto 96 well plates and allowed to recover for 16 hours prior to the addition of inhibitor compounds for a further 96 hours. At the end of the incubation period 10% (v/v) Alamar Blue is added and incubated for a further 6 hours prior to determination of fluorescent product at Excitation 535 nm and Emission 590 nm. All cell lines are obtained from ECACC (European Collection of cell Cultures).
# (§14) The activities of the compounds of the invention against the human colorectal cancer cell line HCT-116 are shown the in the table below. The column headed HCT-116 96 Hrs refers to the concentration of compound required to reduce the proliferation of HCT-116 cells by 50% following a 96 h period of exposure. The column headed [Polyploidy] refers to the lowest concentration of compound required to produce a distinct polyploid phenotype, believed to be due to Aurora B inhibition.
# HCT-116 [2] = test: Polyploid phenotype in HCT-116 cells; assay type: cell-based, human
# Procedure: as §13, §14
# [3] = Caco-2 permeability assay; assay type: in vitro ADME; details: human; for Papp A→B: A2B, read-out: Caco2 A2B Papp; for Papp B→A: B2A, read-out: Caco2 B2A Papp; for efflux ratio: B2A:A2B, read-out: Caco2 Efflux ratio
# Procedure: The ability of a compound to be taken up and retained by a cell can be measured by carrying out permeability studies using Caco-2 cells.
# Compounds of the present invention were therefore tested in a standard Caco-2 assay and the rate of flow of the compounds into and out of the cells was determined.
# In the table, the column headed “Caco-2 A2B” indicates the rate at which compound flows into the cells and the column Caco-2 B2A indicates the rate at which compound flows out of the cells. The “Efflux Ratio” is the ratio of Caco-2 B2A:Caco-2 A2B.
# [4] = tested on: SW620, HCT-116, Colo205, A549, Calu-6 or HL-60 tumour xenografts; details: HL-60 xenograft; cited from earlier work
# [5] = tested on: treatment-refractory primary Acute Myelogenous Leukemia (AML) cells; details: cells from patients; cited from earlier work
# MV4-11 xenograft tumors = test: MV4-11 xenograft study in nude mice; assay type: in vivo, Balb/c nude mouse; details: 100 mg/kg IP once daily, 4 cycles
# From the text: The in vivo antitumour activity of compounds of the invention was investigated by examining the effect of the compounds of Examples 2 and 7 on tumour growth in a nude mouse xenograft model of the MV4-11 cancer cell line.
# MV4-11 cell line (ATCC, USA); RPMI 1640 medium (Invitrogen, USA); FBS (Invitrogen, Australia); Balb/c nude mouse (Slac Laboratory Animal Co., Ltd., Shanghai, China): female, 18-22 g; HP-6-CD (Sigma, USA).
# A total of 52 female nude mice were used. The mice were allowed 3 days of acclimatization period before starting the experiment. Mice were implanted subcutaneously (s.c.) with 200 μl of 1×10^7MV4-11 tumour cells in 50% Matrigel in the right flank at the beginning of the study. When tumours reached an average volume of 100-150 mm^3, 32 mice out of the 52 were selected based on tumour volume, and randomly assigned to 4 groups prior to dosing. Each treatment group consisted of 8 tumour-bearing animals (n=8/group).
# A comparison group of mice were treated with cytarabine once daily for 5 days on, 2 days off, for 4 cycles.
# Mice were weighed at each dosing and the tumour sizes recorded twice each week. Mice were observed closely for any overt signs of adverse, treatment-related side effects and these were recorded if and when they were observed.
# The tumour size was measured twice weekly in two dimensions using calipers, and the volume was expressed in mm^3 using the formula: V=0.5 a×b^2 where a and b were the long and short diameters of the tumour, respectively.
# Mice were euthanized by CO2 exposure after 4-cycle dose. The tumour volume, weight of dissected tumours, and the mouse body weight were measured and recorded. The tumour inhibitory rate (IR) was calculated by the formula IR=(WV−WT)/WV×100%.
# The differences in tumour size between the groups were analyzed for significance using the unpaired two-tailed Student's t-test. P<0.05 was considered to be statistically significant.
# Aurora A kinase, sequence (O14965 whole entry): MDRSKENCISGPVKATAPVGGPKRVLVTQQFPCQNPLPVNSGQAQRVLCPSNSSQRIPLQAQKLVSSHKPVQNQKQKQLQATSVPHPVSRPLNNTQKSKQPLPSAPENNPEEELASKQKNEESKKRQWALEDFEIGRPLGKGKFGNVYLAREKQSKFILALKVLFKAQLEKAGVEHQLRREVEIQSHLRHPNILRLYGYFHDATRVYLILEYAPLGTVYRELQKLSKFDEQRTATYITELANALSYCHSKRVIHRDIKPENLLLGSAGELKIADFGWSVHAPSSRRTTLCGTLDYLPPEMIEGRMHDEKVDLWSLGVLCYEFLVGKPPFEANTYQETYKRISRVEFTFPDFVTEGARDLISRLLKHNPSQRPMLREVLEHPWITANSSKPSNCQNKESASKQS
SMILES,IC50 (Aurora A kinase) [nM],IC50 (Aurora B kinase) [nM],IC50 (FLT3 kinase) [nM],IC50 (HCT-116 [1]) [nM],Papp A→B [3] [×10⁻⁶ cm/s],Papp B→A [3] [×10⁻⁶ cm/s],efflux ratio [3],[Polyploidy] lowest concentration producing a distinct polyploid phenotype (HCT-116 [2]) [µM],complete tumour regression (animals) [4],killing of primary AML cells [5],effect on tumour growth (tumour volume) (MV4-11 xenograft tumors),"tumour inhibitory rate (IR) (MV4-11 xenograft tumors; 5 days on, 2 days off) [%]"
"Cc1cc(C)c2[nH]ccc2c1-c1nc(C(N)=O)c(-c2ccc(N3CCNC(C)(C)C3)cc2)o1 [Example 6, 2-(5,7-Dimethyl-1H-Indol-4-yl)-5-[4-(3,3-dimethyl-piperazin-1-yl)-phenyl]-oxazole-4-carboxylic acid amide]",88.4,19.6,1.37,160,0.514,2.08,4.04,0.1,,,,
"CC1(C)CN(c2ccc(-c3oc(-c4ccc(Cl)c5[nH]ccc45)nc3C(N)=O)cc2)CCN1 [Example 4, 2-(7-Chloro-1H-Indol-4-yl)-5-[4-(3,3-dimethyl-piperazin-1-yl)-phenyl]-oxazole-4-carboxylic acid amide]",34,13.9,0.97,260,0.64,2.76,4.32,0.3,,,,
CCN(CCCOc1ccc2c(Nc3cc(CC(=O)Nc4cccc(F)c4)n[nH]3)ncnc2c1)CCOP(=O)(O)O [AZD1152],,,,,,,,,8 of 11,,,
"CC1(C)CN(c2ccc(-c3oc(-c4cccc5[nH]ccc45)nc3C(N)=O)cc2)CCN1 [Example 11, 2-(1H-Indol-4-yl)-5-[4-(3,3-dimethyl-piperazin-1-yl)-phenyl]-oxazole-4-carboxylic acid amide]",46.2,15.2,,170,2.47,12.6,,0.1,,,,
"CCc1ccc2[nH]ccc2c1-c1nc(C(N)=O)c(-c2ccc(N3CCNC(C)(C)C3)cc2)o1 [Example 9, 2-(5-Ethyl-1H-Indol-4-yl)-5-[4-(3,3-dimethyl-piperazin-1-yl)-phenyl]-oxazole-4-carboxylic acid amide]",,,,,0.519,3.59,6.91,,,,,
Cc1cc(Nc2cc(N3CCN(C)CC3)nc(Sc3ccc(NC(=O)C4CC4)cc3)n2)n[nH]1 [VX-680],,,,,,,,,,potently killed,,
"CC1(C)CN(c2ccc(-c3oc(-c4ccc(C(F)(F)F)c5[nH]ccc45)nc3C(N)=O)cc2)CCN1 [Example 12, 2-(7-Trifluoromethyl-1H-Indol-4-yl)-5-[4-(3,3-dimethyl-piperazin-1-yl)-phenyl]-oxazole-4-carboxylic acid amide]",16,14,2.8,,0.036,1.21,33.5,,,,,
"Nc1ccn([C@@H]2O[C@H](CO)[C@@H](O)[C@@H]2O)c(=O)n1 [cytarabine, reference compound]",,,,,,,,,,,slowed down but did not completely block the tumour growth,66.72
"CC1(C)CN(c2ccc(-c3oc(-c4ccc(F)c5[nH]ccc45)nc3C(N)=O)cc2)CCN1 [Example 3, 2-(7-Fluoro-1H-Indol-4-yl)-5-[4-(3,3-dimethyl-piperazin-1-yl)-phenyl]-oxazole-4-carboxylic acid amide]",19.4,9.36,0.821,120,1.17,7.76,6.62,0.1,,,,
"Cc1c[nH]c2cccc(-c3nc(C(N)=O)c(-c4ccc(N5CCNC(C)(C)C5)cc4)o3)c12 [Example 8, 2-(3-Methyl-1H-Indol-4-yl)-5-[4-(3,3-dimethyl-piperazin-1-yl)-phenyl]-oxazole-4-carboxylic acid amide]",271,14.2,0.55,,2.07,9.19,4.45,,,,,

# Now from value to molecule, other results behind:
IC50 (Aurora A kinase) [nM],IC50 (Aurora B kinase) [nM],IC50 (FLT3 kinase) [nM],IC50 (HCT-116 [1]) [nM],Papp A→B [3] [×10⁻⁶ cm/s],Papp B→A [3] [×10⁻⁶ cm/s],efflux ratio [3],SMILES,[Polyploidy] lowest concentration producing a distinct polyploid phenotype (HCT-116 [2]) [µM],complete tumour regression (animals) [4],killing of primary AML cells [5],effect on tumour growth (tumour volume) (MV4-11 xenograft tumors),"tumour inhibitory rate (IR) (MV4-11 xenograft tumors; 5 days on, 2 days off) [%]"
75,13,1.6,680,1.13,58.3,51.7,"NC(=O)c1nc(-c2cccc3[nH]ccc23)oc1-c1ccc(N2CCNCC2)cc1 [Example M-12, 2-(1H-Indol-4-yl)-5-(4-piperazin-1-yl-phenyl)-oxazole-4-carboxylic acid amide, reference compound]",1.0,,,,
20.5,8.78,0.89,87,1.36,11,,"COc1ccc(-c2nc(C(N)=O)c(-c3ccc(N4CCNC(C)(C)C4)cc3)o2)c2cc[nH]c12 [Example 5, 2-(7-Methoxy-1H-Indol-4-yl)-5-[4-(3,3-dimethyl-piperazin-1-yl)-phenyl]-oxazole-4-carboxylic acid amide]",0.1,,,,
14.6,24.3,1.92,240,0.707,22.8,32.2,"CC1(C)CN(c2ccc(-c3oc(-c4c(F)ccc5[nH]ccc45)nc3C(N)=O)cc2)CCN1 [Example 1, 2-(5-Fluoro-1H-Indol-4-yl)-5-[4-(3,3-dimethyl-piperazin-1-yl)-phenyl]-oxazole-4-carboxylic acid amide]",0.3,,,,
,,,220,0.37,2.35,,"CCc1ccc(-c2nc(C(N)=O)c(-c3ccc(N4CCNC(C)(C)C4)cc3)o2)c2cc[nH]c12 [Example 10, 2-(7-Ethyl-1H-Indol-4-yl)-5-[4-(3,3-dimethyl-piperazin-1-yl)-phenyl]-oxazole-4-carboxylic acid amide]",0.3,,,,
